# Assay results: patent US11919901B2 (Syndax Pharmaceuticals, Inc., priority 2021, dated 2024)
# Tests used:
# hERG = hERG (Homo sapiens (Human), UniProt Q12809); experiment: Patch clamp assay (hERG tail currents, whole-cell); type: cell-based; details: hERG transfected HEK 293 cells; for hERG % Remaining 10 μM: 10 μM compound; for hERG % Remaining 30 μM: 30 μM compound
# Menin-MLL = Menin-MLL (Homo sapiens (Human), UniProt O00255); experiment: Determination of binding constants (Ki) to Menin-MLL (HTRF); details: HTRF, 0.25 nM H-FL-Menin, 3.2 nM FITC-MLL-4-43, 24 hr incubation; for Ki: read-out: Menin-MLL Ki HTRF Assay: Ki
# Sequence of Menin-MLL (O00255 whole entry): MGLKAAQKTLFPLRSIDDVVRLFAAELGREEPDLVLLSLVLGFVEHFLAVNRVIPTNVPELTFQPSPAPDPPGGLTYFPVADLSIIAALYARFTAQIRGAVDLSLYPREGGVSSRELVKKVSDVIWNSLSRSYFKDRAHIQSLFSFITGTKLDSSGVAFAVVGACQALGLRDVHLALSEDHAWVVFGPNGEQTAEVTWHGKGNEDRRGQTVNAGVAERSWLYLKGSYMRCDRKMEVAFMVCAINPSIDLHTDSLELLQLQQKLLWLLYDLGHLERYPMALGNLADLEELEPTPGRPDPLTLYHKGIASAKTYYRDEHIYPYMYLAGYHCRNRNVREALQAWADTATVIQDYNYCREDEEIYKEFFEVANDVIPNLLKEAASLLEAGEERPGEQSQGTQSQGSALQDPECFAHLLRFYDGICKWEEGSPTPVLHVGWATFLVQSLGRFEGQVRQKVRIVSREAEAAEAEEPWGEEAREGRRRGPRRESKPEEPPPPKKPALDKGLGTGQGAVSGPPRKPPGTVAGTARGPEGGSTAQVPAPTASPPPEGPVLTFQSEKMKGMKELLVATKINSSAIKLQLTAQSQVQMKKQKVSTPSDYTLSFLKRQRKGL
# Sequence of hERG (Q12809 whole entry): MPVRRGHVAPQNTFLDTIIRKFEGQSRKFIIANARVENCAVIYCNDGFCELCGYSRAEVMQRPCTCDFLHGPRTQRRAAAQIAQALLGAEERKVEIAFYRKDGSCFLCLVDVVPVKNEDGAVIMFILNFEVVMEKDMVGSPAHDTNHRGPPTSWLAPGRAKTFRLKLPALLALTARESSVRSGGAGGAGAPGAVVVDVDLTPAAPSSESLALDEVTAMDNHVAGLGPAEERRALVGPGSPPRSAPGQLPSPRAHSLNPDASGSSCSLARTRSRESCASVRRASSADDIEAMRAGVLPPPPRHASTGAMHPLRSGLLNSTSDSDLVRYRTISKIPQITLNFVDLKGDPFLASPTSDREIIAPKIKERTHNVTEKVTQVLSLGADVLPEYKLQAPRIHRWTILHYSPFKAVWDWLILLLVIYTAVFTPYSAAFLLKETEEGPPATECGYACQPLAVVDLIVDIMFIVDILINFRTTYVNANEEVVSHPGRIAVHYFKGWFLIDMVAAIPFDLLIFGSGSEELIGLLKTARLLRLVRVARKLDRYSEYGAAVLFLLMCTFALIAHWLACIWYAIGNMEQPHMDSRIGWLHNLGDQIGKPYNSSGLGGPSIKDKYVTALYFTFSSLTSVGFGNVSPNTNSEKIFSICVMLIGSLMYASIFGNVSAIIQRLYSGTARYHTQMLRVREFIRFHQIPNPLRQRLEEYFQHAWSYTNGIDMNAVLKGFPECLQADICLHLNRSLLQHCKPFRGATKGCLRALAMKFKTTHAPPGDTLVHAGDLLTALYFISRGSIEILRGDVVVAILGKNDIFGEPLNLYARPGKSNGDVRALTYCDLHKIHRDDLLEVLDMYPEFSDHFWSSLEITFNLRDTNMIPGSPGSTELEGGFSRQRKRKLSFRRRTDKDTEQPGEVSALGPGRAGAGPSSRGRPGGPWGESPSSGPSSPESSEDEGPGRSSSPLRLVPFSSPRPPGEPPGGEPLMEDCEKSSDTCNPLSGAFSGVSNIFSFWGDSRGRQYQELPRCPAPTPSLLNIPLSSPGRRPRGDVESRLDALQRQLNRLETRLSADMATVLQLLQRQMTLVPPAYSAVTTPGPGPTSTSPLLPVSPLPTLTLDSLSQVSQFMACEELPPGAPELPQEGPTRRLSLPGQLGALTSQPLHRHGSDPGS
smiles,measurement,setting,value
"CC(C)N(C(=O)c1cc(F)ccc1Oc1cncnc1N1CC2(CCN(C[C@@H]3CC[C@@H](NS(=O)(=O)N4CCC4)CO3)CC2)C1)C1CC(F)(F)C1 [Compound 118, 2-((4-(7-(((2S,5R)-5-(Azetidine-1-sulfonamido)tetrahydro-2H-pyran-2-yl)methyl)-2,7-diazaspiro[3.5]nonan-2-yl)pyrimidin-5-yl)oxy)-N-(3,3-difluorocyclobutyl)-5-fluoro-N-isopropylbenzamide]",hERG % Remaining 10 μM,hERG,++ (“++” means ≥33% and <66%)
same,hERG % Remaining 30 μM,hERG,+ (“+” means <33%)
same,Ki,Menin-MLL,< 1 nM
"CCNS(=O)(=O)N[C@@H]1CC[C@@H](CN2CCC3(CC2)CN(c2ncncc2Oc2ccc(F)cc2C(=O)N(CC(F)F)C(C)C)C3)OC1 [Compound 147, N-(2,2-Difluoroethyl)-2-((4-(7-(((2S,5R)-5-((N-ethylsulfamoyl)amino)tetrahydro-2H-pyran-2-yl)methyl)-2,7-diazaspiro[3.5]nonan-2-yl)pyrimidin-5-yl)oxy)-5-fluoro-N-isopropylbenzamide]",hERG % Remaining 10 μM,hERG,+++ (“+++” means ≥66%)
same,hERG % Remaining 30 μM,hERG,+++ (“+++” means ≥66%)
same,IC50,hERG,≥ 50000 nM
same,Ki,Menin-MLL,< 1 nM
"CC(C)N(CC(F)F)C(=O)c1cc(F)ccc1Oc1cncnc1N1CC2(CCN(C[C@@H]3CC[C@@H](NS(=O)(=O)N(C)CCO)CO3)CC2)C1 [Compound 239, N-(2,2-difluoroethyl)-5-fluoro-2-((4-(7-(((2S,5R)-5-((N-(2-hydroxyethyl)-N-methylsulfamoyl)amino)tetrahydro-2H-pyran-2-yl)methyl)-2,7-diazaspiro[3.5]nonan-2-yl)pyrimidin-5-yl)oxy)-N-isopropylbenzamide]",hERG % Remaining 30 μM,hERG,+++ (“+++” means ≥66%)
same,Ki,Menin-MLL,< 1 nM
"CCS(=O)(=O)N[C@@H]1CC[C@@H](CN2CCC3(CC2)CN(c2ncncc2Oc2ccc(F)cc2C(=O)N(C(C)C)[C@H]2CCOC2)C3)OC1 [Compound 33, 2-((4-(7-(((2S,5R)-5-(ethylsulfonamido)tetrahydro-2H-pyran-2-yl)methyl)-2,7-diazaspiro[3.5]nonan-2-yl)pyrimidin-5-yl)oxy)-5-fluoro-N-isopropyl-N-((S)-tetrahydrofuran-3-yl)benzamide]",hERG % Remaining 10 μM,hERG,+++ (“+++” means ≥66%)
same,hERG % Remaining 30 μM,hERG,+++ (“+++” means ≥66%)
same,EC50,Menin-MLL,< 50 nM
same,Ki,Menin-MLL,< 1 nM
"CNS(=O)(=O)N[C@@H]1CC[C@@H](CN2CCC3(CC2)CN(c2ncncc2Oc2ccc(F)cc2C(=O)N(C(C)C)C(C)C)C3)OC1 [Compound 143, 5-Fluoro-N,N-diisopropyl-2-((4-(7-(((2S,5R)-5-((N-methylsulfamoyl)amino)tetrahydro-2H-pyran-2-yl)methyl)-2,7-diazaspiro[3.5]nonan-2-yl)pyrimidin-5-yl)oxy)benzamide]",hERG % Remaining 30 μM,hERG,+++ (“+++” means ≥66%)
same,hERG % Remaining 100 μM,hERG; 100 μM compound,+++ (“+++” means ≥66%)
same,IC50,hERG,≥ 50000 nM
same,Ki,Menin-MLL,< 1 nM
"CCN(C(=O)c1cc(F)ccc1Oc1cncnc1N1CC2(CCN(C[C@@H]3CC[C@@H](NS(=O)(=O)c4c[nH]c(=O)c(C)c4)CO3)CC2)C1)C(C)C [Compound 218, N-Ethyl-5-fluoro-N-isopropyl-2-((4-(7-(((2S,5R)-5-((5-methyl-6-oxo-1,6-dihydropyridine)-3-sulfonamido)tetrahydro-2H-pyran-2-yl)methyl)-2,7-diazaspiro[3.5]nonan-2-yl)pyrimidin-5-yl)oxy)benzamide]",hERG % Remaining 30 μM,hERG,+ (“+” means <33%)
same,Ki,Menin-MLL,< 1 nM
"CCN(C(=O)c1cc(F)ccc1Oc1cncnc1N1CC2(CCN(C[C@@H]3CC[C@@H](NS(C)(=O)=O)CO3)CC2)C1)C(C)C [Compound 1, N-ethyl-5-fluoro-N-isopropyl-2-((4-(7-(((2S,5R)-5-(methylsulfonamido)tetrahydro-2H-pyran-2-yl)methyl)-2,7-diazaspiro[3.5]nonan-2-yl)pyrimidin-5-yl)oxy)benzamide]",hERG % Remaining 10 μM,hERG,+++ (“+++” means ≥66%)
same,hERG % Remaining 30 μM,hERG,++ (“++” means ≥33% and <66%)
same,EC50,Menin-MLL,< 50 nM
same,Ki,Menin-MLL,< 1 nM
"CCN(C(=O)c1cc(F)ccc1Oc1cncnc1N1CC2(CCN(C[C@@H]3CC[C@@H](NS(=O)(=O)c4cccc(OC)c4)CO3)CC2)C1)C(C)C [Compound 66, N-Ethyl-5-fluoro-N-isopropyl-2-((4-(7-(((2S,5R)-5-((3-methoxyphenyl)sulfonamido)tetrahydro-2H-pyran-2-yl)methyl)-2,7-diazaspiro[3.5]nonan-2-yl)pyrimidin-5-yl)oxy)benzamide]",hERG % Remaining 10 μM,hERG,+ (“+” means <33%)
same,hERG % Remaining 30 μM,hERG,+ (“+” means <33%)
same,EC50,Menin-MLL,< 50 nM
same,Ki,Menin-MLL,< 1 nM
"CCN(CC)S(=O)(=O)N[C@@H]1CC[C@@H](CN2CCC3(CC2)CN(c2ncncc2Oc2ccc(F)cc2C(=O)N(C(C)C)C2CC(F)(F)C2)C3)OC1 [Compound 114, 2-((4-(7-(((2S,5R)-5-((N,N-Diethylsulfamoyl)amino)tetrahydro-2H-pyran-2-yl)methyl)-2,7-diazaspiro[3.5]nonan-2-yl)pyrimidin-5-yl)oxy)-N-(3,3-difluorocyclobutyl)-5-fluoro-N-isopropylbenzamide]",hERG % Remaining 10 μM,hERG,+ (“+” means <33%)
same,hERG % Remaining 30 μM,hERG,+ (“+” means <33%)
same,EC50,Menin-MLL,< 50 nM
same,Ki,Menin-MLL,< 1 nM
"CCN(CC)S(=O)(=O)N[C@@H]1CC[C@@H](CN2CCC3(CC2)CN(c2ncncc2Oc2ccc(F)cc2C(=O)N(C(C)C)[C@@H]2CCOC2)C3)OC1 [Compound 165, 2-((4-(7-(((2S,5R)-5-((N,N-Diethylsulfamoyl)amino)tetrahydro-2H-pyran-2-yl)methyl)-2,7-diazaspiro[3.5]nonan-2-yl)pyrimidin-5-yl)oxy)-5-fluoro-N-isopropyl-N-((R)-tetrahydrofuran-3-yl)benzamide]",hERG % Remaining 10 μM,hERG,+++ (“+++” means ≥66%)
same,hERG % Remaining 30 μM,hERG,++ (“++” means ≥33% and <66%)
same,Ki,Menin-MLL,< 1 nM
"CCN(C(=O)c1cc(F)ccc1Oc1cncnc1N1CC2(CCN(C[C@@H]3CC[C@@H](NS(=O)(=O)NC4CC4)CO3)CC2)C1)C(C)C [Compound 142, 2-((4-(7-(((2S,5R)-5-((N-Cyclopropylsulfamoyl)amino)tetrahydro-2H-pyran-2-yl)methyl)-2,7-diazaspiro[3.5]nonan-2-yl)pyrimidin-5-yl)oxy)-N-ethyl-5-fluoro-N-isopropylbenzamide]",hERG % Remaining 30 μM,hERG,++ (“++” means ≥33% and <66%)
same,Ki,Menin-MLL,< 1 nM
"CC(C)N(C(=O)c1cc(F)ccc1Oc1cncnc1N1CC2(CCN(C[C@@H]3CC[C@@H](NS(=O)(=O)N4CC5(CCOC5)C4)CO3)CC2)C1)C(C)C [Compound 223, 2-((4-(7-(((2S,5R)-5-(6-Oxa-2-azaspiro[3.4]octane-2-sulfonamido)tetrahydro-2H-pyran-2-yl)methyl)-2,7-diazaspiro[3.5]nonan-2-yl)pyrimidin-5-yl)oxy)-5-fluoro-N,N-diisopropylbenzamide]",hERG % Remaining 30 μM,hERG,+++ (“+++” means ≥66%)
same,Ki,Menin-MLL,< 1 nM
